Source: patent publication US20230017045A1, “PYRIDINE AND PYRIMIDINE CARBOXYLATE HERBICIDES AND METHODS OF USE THEREOF” (Dow AgroSciences LLC, priority 2017, published 2023)

Each compound was assayed on test plant species (assay: Post-emergent herbicidal activity test (greenhouse, foliar spray, visual growth reduction)). Details: post-emergence, 336 h, ECHCG: barnyardgrass (Echinochloa crus-galli), 140 g ai/ha, 14 days after application, read-out: Visual Growth Reduction (%) 14 Days After Application, ECHCG.
Format: in vivo
Procedure: Post-emergent Test: Seeds or nutlets of the desired test plant species were planted in Sun Gro Metro-Mix® 360 planting mixture, which typically has a pH of 6.0 to 6.8 and an organic matter content of about 30 percent, in plastic pots with a surface area of 64 square centimeters. In some aspects, to ensure good germination and healthy plants, a fungicide treatment and/or other chemical or physical treatment was applied. The plants were grown for 7-21 d in a greenhouse with an approximate 15 h photoperiod which was maintained at 23-29° C. during the day and 22-28° C. during the night. Nutrients and water were added on a regular basis and supplemental lighting was provided with overhead metal halide 1000-Watt lamps as necessary. Plants were used for testing when they reached the first or second true leaf stage. A weighed amount, determined by the highest rate to be tested, of each test compound was placed in a 25 mL glass vial and was dissolved in 4 mL of a 97:3 v/v mixture of acetone and DMSO to obtain concentrated stock solutions. […] The concentrated stock solutions obtained were diluted with 20 mL of an aqueous mixture containing acetone, water, isopropyl alcohol, DMSO, […] crop oil concentrate, and X-77 surfactant in a 48.5:39:10:1.5:1.0:0.02 v/v ratio to obtain spray solutions containing the application rate. Compound requirements are based upon a 12 mL application volume at a rate of 187 liters per hectare (L/ha). Formulated compounds were applied to the plant material with an overhead Mandel track sprayer equipped with […] nozzles calibrated to deliver 187 L/ha over an application area of 0.64 square meters at a spray height of 18 inches (43 cm) above the average plant canopy height. Control plants were sprayed in the same manner with the solvent blank. The treated plants and control plants were placed in a greenhouse as described above and watered by subirrigation to prevent wash-off of the test compounds. After 14 d, the condition of the test plants as compared with that of the nontreated and control plants was determined visually and scored on a scale of 0 to 100 percent where 0 corresponds to no injury and 100 corresponds to complete control. In the reporting of the results, Table A: Percent Growth Reduction Conversion Table was used.

Compound	pest or weed control at 140 g/ha
COC(=O)c1nc(-c2ccc(C(F)F)cc2OC)c(F)cc1Cl [F275, Methyl 3-chloro-6-(4-(difluoromethyl)-2-methoxyphenyl)-5-fluoropicolinate]	0 to 29%
Cc1cc(C(F)(F)F)cc(Cl)c1-c1ccc(Cl)c(C(=O)O)n1 [F259, 3-Chloro-6-(2-chloro-6-methyl-4-(trifluoromethyl)phenyl)picolinic acid]	45 to 59%

Same assay, conditions: post-emergence, 336 h, IPOHE: ivy-leaf morning glory (Ipomoea hederacea), 140 g ai/ha, 14 days after application, read-out: Visual Growth Reduction (%) 14 Days After Application, IPOHE

Compound	pest or weed control at 140 g/ha
COC(=O)c1nc(-c2ccc(C(F)F)cc2OC)c(F)cc1Cl [F275, Methyl 3-chloro-6-(4-(difluoromethyl)-2-methoxyphenyl)-5-fluoropicolinate]	95 to 100%
Cc1cc(C(F)(F)F)cc(Cl)c1-c1ccc(Cl)c(C(=O)O)n1 [F259, 3-Chloro-6-(2-chloro-6-methyl-4-(trifluoromethyl)phenyl)picolinic acid]	95 to 100%

Same assay, conditions: post-emergence, 336 h, KCHSC: kochia (Bassia scoparia), 140 g ai/ha, 14 days after application, read-out: Visual Growth Reduction (%) 14 Days After Application, KCHSC

Compound	pest or weed control at 140 g/ha
COC(=O)c1nc(-c2ccc(C(F)F)cc2OC)c(F)cc1Cl [F275, Methyl 3-chloro-6-(4-(difluoromethyl)-2-methoxyphenyl)-5-fluoropicolinate]	85 to 94%
Cc1cc(C(F)(F)F)cc(Cl)c1-c1ccc(Cl)c(C(=O)O)n1 [F259, 3-Chloro-6-(2-chloro-6-methyl-4-(trifluoromethyl)phenyl)picolinic acid]	60 to 74%

Same assay, conditions: post-emergence, 336 h, ORYSA: rice (Oryza sativa), 140 g ai/ha, 14 days after application, read-out: Visual Growth Reduction (%) 14 Days After Application, ORYSA

Compound	pest or weed control at 140 g/ha
COC(=O)c1nc(-c2ccc(C(F)F)cc2OC)c(F)cc1Cl [F275, Methyl 3-chloro-6-(4-(difluoromethyl)-2-methoxyphenyl)-5-fluoropicolinate]	0 to 29%
Cc1cc(C(F)(F)F)cc(Cl)c1-c1ccc(Cl)c(C(=O)O)n1 [F259, 3-Chloro-6-(2-chloro-6-methyl-4-(trifluoromethyl)phenyl)picolinic acid]	0 to 29%

Same assay, conditions: post-emergence, 336 h, SETFA: giant foxtail (Setaria faberi), 140 g ai/ha, 14 days after application, read-out: Visual Growth Reduction (%) 14 Days After Application, SETFA

Compound	pest or weed control at 140 g/ha
COC(=O)c1nc(-c2ccc(C(F)F)cc2OC)c(F)cc1Cl [F275, Methyl 3-chloro-6-(4-(difluoromethyl)-2-methoxyphenyl)-5-fluoropicolinate]	45 to 59%
Cc1cc(C(F)(F)F)cc(Cl)c1-c1ccc(Cl)c(C(=O)O)n1 [F259, 3-Chloro-6-(2-chloro-6-methyl-4-(trifluoromethyl)phenyl)picolinic acid]	75 to 84%

Same assay, conditions: post-emergence, 336 h, SORVU: grain sorghum (Sorghum vulgare), 140 g ai/ha, 14 days after application, read-out: Visual Growth Reduction (%) 14 Days After Application, SORVU

Compound	pest or weed control at 140 g/ha
COC(=O)c1nc(-c2ccc(C(F)F)cc2OC)c(F)cc1Cl [F275, Methyl 3-chloro-6-(4-(difluoromethyl)-2-methoxyphenyl)-5-fluoropicolinate]	45 to 59%
Cc1cc(C(F)(F)F)cc(Cl)c1-c1ccc(Cl)c(C(=O)O)n1 [F259, 3-Chloro-6-(2-chloro-6-methyl-4-(trifluoromethyl)phenyl)picolinic acid]	85 to 94%

Same assay, conditions: post-emergence, 336 h, STEME: common chickweed (Stellaria media), 140 g ai/ha, 14 days after application, read-out: Visual Growth Reduction (%) 14 Days After Application, STEME

Compound	pest or weed control at 140 g/ha
COC(=O)c1nc(-c2ccc(C(F)F)cc2OC)c(F)cc1Cl [F275, Methyl 3-chloro-6-(4-(difluoromethyl)-2-methoxyphenyl)-5-fluoropicolinate]	0 to 29%
Cc1cc(C(F)(F)F)cc(Cl)c1-c1ccc(Cl)c(C(=O)O)n1 [F259, 3-Chloro-6-(2-chloro-6-methyl-4-(trifluoromethyl)phenyl)picolinic acid]	0 to 29%

Same assay, conditions: post-emergence, 336 h, TRZAS: wheat, spring (Triticum aestivum), 140 g ai/ha, 14 days after application, read-out: Visual Growth Reduction (%) 14 Days After Application, TRZAS

Compound	pest or weed control at 140 g/ha
COC(=O)c1nc(-c2ccc(C(F)F)cc2OC)c(F)cc1Cl [F275, Methyl 3-chloro-6-(4-(difluoromethyl)-2-methoxyphenyl)-5-fluoropicolinate]	0 to 29%
Cc1cc(C(F)(F)F)cc(Cl)c1-c1ccc(Cl)c(C(=O)O)n1 [F259, 3-Chloro-6-(2-chloro-6-methyl-4-(trifluoromethyl)phenyl)picolinic acid]	45 to 59%

Same assay, conditions: post-emergence, 336 h, blackgrass (Alopecurus myosuroides), 14 Days After Application, 140 g ai/ha, read-out: Visual Growth Reduction (%) ALOMY

Compound	pest or weed control at 140 g/ha
COC(=O)c1nc(-c2ccc(C(F)F)cc2OC)c(F)cc1Cl [F275, Methyl 3-chloro-6-(4-(difluoromethyl)-2-methoxyphenyl)-5-fluoropicolinate]	0 to 29%
Cc1cc(C(F)(F)F)cc(Cl)c1-c1ccc(Cl)c(C(=O)O)n1 [F259, 3-Chloro-6-(2-chloro-6-methyl-4-(trifluoromethyl)phenyl)picolinic acid]	0 to 29%

Same assay, conditions: post-emergence, 336 h, canada thistle (Cirsium arvense), 14 Days After Application, 140 g ai/ha, read-out: Visual Growth Reduction (%) CIRAR

Compound	pest or weed control at 140 g/ha
COC(=O)c1nc(-c2ccc(C(F)F)cc2OC)c(F)cc1Cl [F275, Methyl 3-chloro-6-(4-(difluoromethyl)-2-methoxyphenyl)-5-fluoropicolinate]	95 to 100%
Cc1cc(C(F)(F)F)cc(Cl)c1-c1ccc(Cl)c(C(=O)O)n1 [F259, 3-Chloro-6-(2-chloro-6-methyl-4-(trifluoromethyl)phenyl)picolinic acid]	75 to 84%

Same assay, conditions: post-emergence, 336 h, crabgrass (Digitaria sanguinalis), 14 Days After Application, 140 g ai/ha, read-out: Visual Growth Reduction (%) DIGSA

Compound	pest or weed control at 140 g/ha
COC(=O)c1nc(-c2ccc(C(F)F)cc2OC)c(F)cc1Cl [F275, Methyl 3-chloro-6-(4-(difluoromethyl)-2-methoxyphenyl)-5-fluoropicolinate]	0 to 29%
Cc1cc(C(F)(F)F)cc(Cl)c1-c1ccc(Cl)c(C(=O)O)n1 [F259, 3-Chloro-6-(2-chloro-6-methyl-4-(trifluoromethyl)phenyl)picolinic acid]	60 to 74%

Same assay, conditions: post-emergence, 336 h, lambsquarters (Chenopodium album), 14 Days After Application, 140 g ai/ha, read-out: Visual Growth Reduction (%) CHEAL

Compound	pest or weed control at 140 g/ha
COC(=O)c1nc(-c2ccc(C(F)F)cc2OC)c(F)cc1Cl [F275, Methyl 3-chloro-6-(4-(difluoromethyl)-2-methoxyphenyl)-5-fluoropicolinate]	85 to 94%
Cc1cc(C(F)(F)F)cc(Cl)c1-c1ccc(Cl)c(C(=O)O)n1 [F259, 3-Chloro-6-(2-chloro-6-methyl-4-(trifluoromethyl)phenyl)picolinic acid]	75 to 84%

Same assay, conditions: post-emergence, 336 h, redroot pigweed (Amaranthus retroflexus), 14 Days After Application, 140 g ai/ha, read-out: Visual Growth Reduction (%) AMARE

Compound	pest or weed control at 140 g/ha
COC(=O)c1nc(-c2ccc(C(F)F)cc2OC)c(F)cc1Cl [F275, Methyl 3-chloro-6-(4-(difluoromethyl)-2-methoxyphenyl)-5-fluoropicolinate]	60 to 74%
Cc1cc(C(F)(F)F)cc(Cl)c1-c1ccc(Cl)c(C(=O)O)n1 [F259, 3-Chloro-6-(2-chloro-6-methyl-4-(trifluoromethyl)phenyl)picolinic acid]	95 to 100%

Same assay, conditions: post-emergence, 336 h, wild oat (Avena fatua), 14 Days After Application, 140 g ai/ha, read-out: Visual Growth Reduction (%) AVEFA

Compound	pest or weed control at 140 g/ha
COC(=O)c1nc(-c2ccc(C(F)F)cc2OC)c(F)cc1Cl [F275, Methyl 3-chloro-6-(4-(difluoromethyl)-2-methoxyphenyl)-5-fluoropicolinate]	0 to 29%
Cc1cc(C(F)(F)F)cc(Cl)c1-c1ccc(Cl)c(C(=O)O)n1 [F259, 3-Chloro-6-(2-chloro-6-methyl-4-(trifluoromethyl)phenyl)picolinic acid]	0 to 29%

Same assay, conditions: post-emergence, 336 h, yellow nutsedge (Cyperus esculentus), 14 Days After Application, 140 g ai/ha, read-out: Visual Growth Reduction (%) CYPES

Compound	pest or weed control at 140 g/ha
COC(=O)c1nc(-c2ccc(C(F)F)cc2OC)c(F)cc1Cl [F275, Methyl 3-chloro-6-(4-(difluoromethyl)-2-methoxyphenyl)-5-fluoropicolinate]	0 to 29%
Cc1cc(C(F)(F)F)cc(Cl)c1-c1ccc(Cl)c(C(=O)O)n1 [F259, 3-Chloro-6-(2-chloro-6-methyl-4-(trifluoromethyl)phenyl)picolinic acid]	0 to 29%
